From ChEMBL document CHEMBL1201862, “PubChem BioAssay data set” (2004)
Calls of active or inactive are those of the source.

How the values were obtained:
[1] = biological target: 5-hydroxytryptamine receptor 2A (Mus musculus, UniProt P35363); type: functional, cell-based;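 note: CHO-K1 cells with tagged receptor and beta-arrestin; agonist potency measured as compound-induced activation of the receptor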
[2] = biological target: T1, RNA-binding protein pos-1 (Caenorhabditis elegans, UniProt G5EF15); assay: inhibitors of POS-1/mex-3 RNA binding, dose response, biochemical, fluorescence polarization (AID 1964);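 note: purified POS-1 fused to maltose binding protein made in E. coli; potency of compounds blocking POS-1 binding to fluorescent RNA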
T1 sequence (G5EF15 whole entry): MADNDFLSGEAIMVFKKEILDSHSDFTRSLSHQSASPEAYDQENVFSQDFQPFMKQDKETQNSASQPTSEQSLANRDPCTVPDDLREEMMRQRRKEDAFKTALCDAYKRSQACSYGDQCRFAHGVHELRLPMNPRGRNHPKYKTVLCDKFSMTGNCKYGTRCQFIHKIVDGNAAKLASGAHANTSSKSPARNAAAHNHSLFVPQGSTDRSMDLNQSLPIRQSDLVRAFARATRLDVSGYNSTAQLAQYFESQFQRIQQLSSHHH

[3] = biological target: T2, Zinc finger protein mex-5 (Caenorhabditis elegans, UniProt Q9XUB2); assay: MEX-5/TCR-2 RNA interaction inhibitors, dose response, biochemical, C. elegans, fluorescence polarization (AID 1960)
T2 sequence (Q9XUB2 whole entry): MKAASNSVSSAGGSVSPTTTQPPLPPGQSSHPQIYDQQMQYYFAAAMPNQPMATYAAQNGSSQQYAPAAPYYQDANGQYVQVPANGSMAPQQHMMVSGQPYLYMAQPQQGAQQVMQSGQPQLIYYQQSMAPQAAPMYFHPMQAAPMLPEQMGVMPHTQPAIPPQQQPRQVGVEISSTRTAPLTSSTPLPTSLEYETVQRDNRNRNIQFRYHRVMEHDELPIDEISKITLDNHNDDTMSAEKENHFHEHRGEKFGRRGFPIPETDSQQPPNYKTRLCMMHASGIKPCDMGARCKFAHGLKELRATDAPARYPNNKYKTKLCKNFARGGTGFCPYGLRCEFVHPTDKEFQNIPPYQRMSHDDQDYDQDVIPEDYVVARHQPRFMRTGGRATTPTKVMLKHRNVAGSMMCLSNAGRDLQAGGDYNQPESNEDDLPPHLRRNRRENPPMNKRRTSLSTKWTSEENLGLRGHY

[4] = biological target: Mu-type opioid receptor (Homo sapiens, UniProt P35372); type: functional, cell-based;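 note: U2OS cells with beta-arrestin recruitment to OPRM1 by beta-gal complementation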
[5] = system: Vero; assay: Vero cell toxicity, dose response, cytotoxicity control, plate reader, cherry-pick samples (AID 687020); type: functional, cell-based; conditions: Chlorocebus sabaeus
[6] = system: BJ; assay: cytotoxicity toward BJ-TERT fibroblasts, dose response, cell-based, RAS-independent, luminescence (AID 1933); type: functional; conditions: Homo sapiens
[7] = system: BJ; assay: cells; type: functional, cell-based; conditions: Homo sapiens
[8] = system: BJ; assay: cytotoxicity toward BJ-TERT-LT-ST fibroblasts, dose response, cell-based, RAS-independent, luminescence (AID 1935); type: functional; conditions: Homo sapiens;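 note: BJ fibroblasts immortalized with TERT plus LT and ST oncogenes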
[9] = cytotoxicity toward DRD oncogenic fibroblasts, dose response, cell-based, non-viral oncogenic, luminescence (AID 1934); type: functional; conditions: Homo sapiens
[10] = CFTR ΔF508 corrector activity in bronchial cells, dose response, human bronchial epithelial cells, plate reader, cherry-pick, two tests (AID 743267); type: functional, cell-based
[11] = biological target: Kallikrein-7 (Homo sapiens, UniProt P49862); assay: Fluorescence Intensity-based biochemical primary high throughput dose response assay to identify activators of kallikrein-7 (K7) zymogen.
[12] = CEM21 lymphoblast cell cytotoxicity, dose response, cytotoxicity control for viral fusion inhibitor project, CellTiter-Glo luminescence, cherry-picked (AID 652042); type: functional, cell-based;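 note: potency for signal decrease meaning cytotoxicity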
[13] = system: HeLa; assay: HeLa cell cytotoxicity, dose response, cytotoxicity control, ATP luminescence, cherry-pick samples (AID 687004); type: functional, cell-based; conditions: Homo sapiens
[14] = system: HepG2; assay: HepG2 cell cytotoxicity, dose response, cytotoxicity control, cherry-picks, set 2 (AID 687002); type: functional, cell-based; conditions: Homo sapiens
[15] = off-target signal loss in HeLa-CEM21 co-culture – HeLa F-luc CTL cells, cherry-picked, counter-screen for HIV-1 Env fusion inhibitor project, dose response (AID 652040); type: functional, cell-based;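 note: potency for signal decrease marking cytotoxic or nonspecific inhibition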
[16] = biological target: T3, NAD-dependent protein deacylase sirtuin-5, mitochondrial (Homo sapiens, UniProt Q9NXA8); assay: SIRT5 desuccinylase inhibitors, dose response, biochemical, fluorescence imaging, cherry-pick, set 5 (AID 720591);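 note: desuccinylation of succinyl peptide AMC substrate read as fluorescence after trypsin release; potency of inhibitors that lower fluorescence and may act on trypsin instead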
[17] = biological target: Matrix metalloproteinase-14 (Homo sapiens, UniProt P50281); assay: Dose Response confirmation of uHTS hits for a small molecule inhibitors of MT1-MMP activation in a fluorescence assay set 1.; type: functional
[18] = biological target: Large T antigen (Simian virus 40, UniProt P03070); type: functional, Betapolyomavirus macacae;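 note: Confirmatory-stage PubChem screen for compounds that inhibit SV40 T antigen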
[19] = biological target: T4, Bcl-2-like protein 10 (Homo sapiens, UniProt Q9HD36); assay: displacers of TR3 peptide from Bcl-B, primary screen, selectivity assay for Bfl-1 inhibitor project, biochemical, fluorescence polarization, FITC-TR3 peptide (AID 748);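 note: fluorescence polarization from a fluorescein-labelled TR3 peptide binding purified Bcl-B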
T4 sequence (Q9HD36 whole entry): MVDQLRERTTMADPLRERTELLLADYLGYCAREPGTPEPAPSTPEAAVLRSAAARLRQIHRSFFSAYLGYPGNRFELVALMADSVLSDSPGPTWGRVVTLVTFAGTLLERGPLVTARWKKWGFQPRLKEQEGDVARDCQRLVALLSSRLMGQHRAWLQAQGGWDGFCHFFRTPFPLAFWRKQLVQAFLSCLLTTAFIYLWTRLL

[20] = biological target: Intestinal-type alkaline phosphatase (Homo sapiens, UniProt P09923); assay: human intestinal alkaline phosphatase activators, dose response, biochemical, luminescence, uHTS hits (AID 463120); type: functional
[21] = human group III sPLA2 inhibitors, dose response, biochemical, QFRET, IC50 (AID 743457);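 note: green fluorescence rise as the enzyme cleaves BODIPY PC-A2 in liposomes; potency for inhibition of the enzyme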
[22] = biological target: T5, Ubiquitin-conjugating enzyme E2 N (Homo sapiens, UniProt P61088); type: functional;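 note: Dose-response confirmation in a TR-FRET assay detecting UBC13-driven polyubiquitin chain formation, inhibition measured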
T5 sequence (P61088 whole entry): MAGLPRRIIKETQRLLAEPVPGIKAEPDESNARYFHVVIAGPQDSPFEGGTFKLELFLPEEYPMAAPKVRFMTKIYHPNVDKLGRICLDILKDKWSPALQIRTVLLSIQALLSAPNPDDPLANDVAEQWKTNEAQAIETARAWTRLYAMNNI

[23] = biological target: Botulinum neurotoxin type F (Clostridium botulinum, UniProt P30996); assay: High-throughput multiplex microsphere dose response for inhibitors of toxin protease, specifically Botulinum neurotoxin light chain F protease, compounds from Cherry Pick 02.; type: functional; conditions: read-out: EC50_MICROM
[24] = non-specific cell cytotoxicity, dose response, cytotoxicity control for PAX8 inhibitor project, plate reader, dry powder samples (AID 743021); type: functional, cell-based
[25] = biological target: Paired box protein Pax-8 (Homo sapiens, UniProt Q06710); assay: inhibitors of PAX8-driven TPO luciferase reporter, dose response, RMG-I cells, cherry-pick (AID 687027); type: functional, cell-based;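 note: luciferase reporter driven by Pax8 target thyroperoxidase promoter measured by SteadyGlo luminescence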
[26] = IGROV1 ovarian cancer cell cytotoxicity, dose response, PAX8 inhibitor project, plate reader, dry powder samples (AID 743043); type: functional, cell-based; conditions: IGROV-1
[27] = HepG2 cell cytotoxicity, dose response, cytotoxicity control, cherry-picked samples (AID 1159577); type: functional, cell-based
[28] = P. falciparum Dd2 growth inhibitors, dose response, SYBR Green, cherry-picked samples (AID 1159567); type: functional, cell-based
[29] = cytotoxicity in OVCAR8 ovarian cancer cells, dose response, PAX8 project, cell-based, plate reader, dry powder samples (AID 743197); type: functional; conditions: OVCAR-8
[30] = inhibitors of PGC1a acetylation in cells, dose response, cell-based, cherry-picked samples (AID 720514); type: functional;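 note: potency may reflect raised or lowered acetylation signal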
[31] = reduction of Shn3 3'UTR firefly luciferase signal, dose response, Schnurri-3 inhibitor project, cell-based, Clone20 osteoblasts, cherry-pick, set 2 (AID 720490); type: functional;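 note: actives lower the luminescence signal as inhibitors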
[32] = cytotoxicity in MIN6 insulinoma cells, dose response, cytotoxicity control, cell-based, mouse insulinoma (AID 2122); type: functional;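 note: confirmatory high-throughput counterscreen run to flag cytotoxic compounds; mouse MIN-6 beta cells carrying an insulin promoter eGFP reporter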
[33] = Shn3 3'UTR reporter inhibitors, dose response, cell-based, Clone20 osteoblasts, firefly luciferase, cherry-picked (AID 624132); type: functional;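 note: firefly luciferase luminescence from reporter carrying the Shn3 3'UTR in osteoblasts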
[34] = system: INS1; assay: beta cell apoptosis inhibitors, cytokine rescue, dose response, luminescence, retest (AID 449756); type: functional, cell-based; conditions: Rattus norvegicus;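 note: cell death triggered by IL-1 beta plus TNF-alpha plus IFN-gamma mixture; protective hits raise ATP signal compared with cytokine alone wells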
[35] = control 3'UTR Renilla luciferase suppression, dose response, counter-screen for Shn3 inhibitor project, cell-based, Clone20-Shn3RL, cherry-picked (AID 624133); type: functional
[36] = insulin promoter down-regulators in MIN6 cells, imaging, high-content screening, mouse beta cells (AID 1628); type: functional
[37] = HepG2 cell cytotoxicity, dose response, cytotoxicity control for Shn3 inhibitor project, CellTiter-Glo, cherry-picked (AID 624134); type: functional, cell-based
[38] = A375 melanoma cell cytotoxicity, dose response, counter-screen for MITF inhibitor project, CellTiter-Glo luminescence, dry powder, set 2 (AID 624489); type: functional, cell-based; conditions: A-375;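 note: actives are compounds lowering A375 viability meaning general cytotoxicity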
[39] = A375 melanoma cell viability loss, dose response, counter-screen for MITF inhibitor project, CellTiter-Glo luminescence, dry powder, set 4 (AID 624364); type: functional, cell-based; conditions: A-375;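 note: A375 melanoma cells are MITF independent so this is a counter screen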
[40] = biological target: Protein disulfide-isomerase (Homo sapiens, UniProt P07237); assay: PDI inhibitors, insulin turbidity readout, confirmation, biochemical, dry powder samples, set 2 (AID 652146)
[41] = HepG2 cell cytotoxicity, dose response, cytotoxicity control, ATP luminescence, dry powder (AID 652118); type: functional, cell-based
[42] = biological target: T3, NAD-dependent protein deacylase sirtuin-5, mitochondrial; assay: SIRT5 deacylase inhibitors, dose response, biochemical, fluorescence imaging, cherry-pick, set 6 (AID 720597)
[43] = biological target: Potassium channel subfamily K member 9 (Homo sapiens, UniProt Q9NPC2); assay: TASK3 (KCNK9) channel inhibitors, thallium flux, SAR follow-up, selectivity assay for TASK1 inhibitor project, cell-based, FluxOR thallium flux, concentration-response (AID 652211); type: functional;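 note: potency is for inhibitors of the channel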
[44] = biological target: Potassium channel subfamily K member 3 (Homo sapiens, UniProt O14649); assay: TASK1 (KCNK3) potassium channel inhibitors, SAR follow-up, CHO cells, FluxOR thallium flux (AID 652212); type: functional
[45] = biological target: C-C chemokine receptor type 6 (Homo sapiens, UniProt P51684); assay: SAR analysis of small molecule antagonists of the CXCR6 receptor using a CCR6 receptor luminescent beta-arrestin counterscreen.; type: functional
[46] = biological target: C-X-C chemokine receptor type 4 (Homo sapiens, UniProt P61073); assay: SAR analysis of small molecule antagonists of the CXCR6 receptor using a CXCR4 receptor luminescent beta-arrestin counterscreen.; type: functional
[47] = Late stage counterscreen for inhibitors of Trypanosoma brucei methionyl tRNA synthetase (MetRS): Luminescence-based cell-based high throughput dose response assay to identify compounds that are cytotoxic to Jurkat human T lymphocyte cells.; type: functional

T3 sequence (Q9NXA8 whole entry): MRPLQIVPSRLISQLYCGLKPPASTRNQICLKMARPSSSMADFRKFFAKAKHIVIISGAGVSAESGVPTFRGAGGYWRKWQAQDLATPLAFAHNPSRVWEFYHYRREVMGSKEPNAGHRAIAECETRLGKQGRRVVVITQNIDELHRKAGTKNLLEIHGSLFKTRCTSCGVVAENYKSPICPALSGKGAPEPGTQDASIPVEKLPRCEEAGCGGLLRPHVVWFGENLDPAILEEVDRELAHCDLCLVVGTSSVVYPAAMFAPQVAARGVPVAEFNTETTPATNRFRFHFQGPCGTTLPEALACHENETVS
Chain of Large T antigen (P03070 whole entry): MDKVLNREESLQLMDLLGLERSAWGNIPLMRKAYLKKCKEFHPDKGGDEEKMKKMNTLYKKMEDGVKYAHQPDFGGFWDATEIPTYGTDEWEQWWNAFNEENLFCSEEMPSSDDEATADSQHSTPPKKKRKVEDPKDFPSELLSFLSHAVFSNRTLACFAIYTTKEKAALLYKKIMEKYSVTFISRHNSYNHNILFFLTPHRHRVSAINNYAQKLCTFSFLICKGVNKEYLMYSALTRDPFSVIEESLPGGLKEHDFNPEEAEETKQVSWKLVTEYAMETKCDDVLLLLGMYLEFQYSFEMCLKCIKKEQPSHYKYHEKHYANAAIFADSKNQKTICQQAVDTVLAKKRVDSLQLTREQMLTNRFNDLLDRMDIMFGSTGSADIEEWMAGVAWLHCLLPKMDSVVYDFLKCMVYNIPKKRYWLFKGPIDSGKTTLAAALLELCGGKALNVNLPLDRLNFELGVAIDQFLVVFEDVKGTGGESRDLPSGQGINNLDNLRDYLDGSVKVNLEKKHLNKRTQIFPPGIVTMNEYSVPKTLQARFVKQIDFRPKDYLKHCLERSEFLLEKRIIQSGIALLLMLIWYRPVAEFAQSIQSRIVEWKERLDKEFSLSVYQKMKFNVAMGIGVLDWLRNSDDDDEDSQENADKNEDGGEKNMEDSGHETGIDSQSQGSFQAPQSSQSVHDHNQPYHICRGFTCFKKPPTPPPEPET
Chain of C-C chemokine receptor type 6 (P51684 whole entry): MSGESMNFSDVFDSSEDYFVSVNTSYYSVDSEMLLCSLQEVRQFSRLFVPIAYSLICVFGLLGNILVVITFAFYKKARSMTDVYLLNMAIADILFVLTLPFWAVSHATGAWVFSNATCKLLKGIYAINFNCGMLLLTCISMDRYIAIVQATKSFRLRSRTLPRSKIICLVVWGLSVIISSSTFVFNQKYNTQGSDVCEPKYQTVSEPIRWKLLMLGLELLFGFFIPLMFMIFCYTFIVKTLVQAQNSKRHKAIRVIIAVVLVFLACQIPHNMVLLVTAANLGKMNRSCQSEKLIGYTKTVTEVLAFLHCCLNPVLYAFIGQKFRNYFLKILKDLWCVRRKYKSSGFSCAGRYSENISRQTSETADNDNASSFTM
Chain of Kallikrein-7 (P49862 whole entry, the tested form may be a part): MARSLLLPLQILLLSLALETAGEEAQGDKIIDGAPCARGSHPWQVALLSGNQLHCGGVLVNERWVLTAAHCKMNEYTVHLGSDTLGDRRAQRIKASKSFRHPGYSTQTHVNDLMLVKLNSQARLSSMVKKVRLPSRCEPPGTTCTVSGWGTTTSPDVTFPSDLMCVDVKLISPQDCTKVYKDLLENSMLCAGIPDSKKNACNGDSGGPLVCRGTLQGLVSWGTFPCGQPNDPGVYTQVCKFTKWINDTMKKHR
Chain of Mu-type opioid receptor (P35372 whole entry): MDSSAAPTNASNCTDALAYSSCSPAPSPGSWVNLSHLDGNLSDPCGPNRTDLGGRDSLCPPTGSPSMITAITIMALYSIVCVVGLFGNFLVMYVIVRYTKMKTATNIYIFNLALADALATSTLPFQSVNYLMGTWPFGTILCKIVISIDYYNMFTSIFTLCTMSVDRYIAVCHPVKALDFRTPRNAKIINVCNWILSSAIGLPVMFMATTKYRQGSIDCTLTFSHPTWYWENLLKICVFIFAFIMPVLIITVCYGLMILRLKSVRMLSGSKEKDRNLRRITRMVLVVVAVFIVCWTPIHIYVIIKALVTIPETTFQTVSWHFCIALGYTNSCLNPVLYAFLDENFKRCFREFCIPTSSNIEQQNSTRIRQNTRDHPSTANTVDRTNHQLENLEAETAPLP
Chain of Paired box protein Pax-8 (Q06710 whole entry): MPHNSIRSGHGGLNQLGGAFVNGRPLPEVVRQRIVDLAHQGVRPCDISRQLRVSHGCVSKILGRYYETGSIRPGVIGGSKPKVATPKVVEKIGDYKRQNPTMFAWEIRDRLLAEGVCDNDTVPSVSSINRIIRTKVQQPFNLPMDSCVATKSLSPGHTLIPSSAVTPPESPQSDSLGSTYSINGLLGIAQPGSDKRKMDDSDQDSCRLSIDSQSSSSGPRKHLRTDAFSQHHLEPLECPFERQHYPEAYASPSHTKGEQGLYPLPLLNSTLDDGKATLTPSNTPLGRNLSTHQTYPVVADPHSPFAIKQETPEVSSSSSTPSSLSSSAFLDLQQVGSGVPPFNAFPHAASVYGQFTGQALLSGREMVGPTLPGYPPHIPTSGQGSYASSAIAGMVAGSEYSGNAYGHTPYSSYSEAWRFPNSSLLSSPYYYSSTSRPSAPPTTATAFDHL
Chain of Potassium channel subfamily K member 9 (Q9NPC2 whole entry): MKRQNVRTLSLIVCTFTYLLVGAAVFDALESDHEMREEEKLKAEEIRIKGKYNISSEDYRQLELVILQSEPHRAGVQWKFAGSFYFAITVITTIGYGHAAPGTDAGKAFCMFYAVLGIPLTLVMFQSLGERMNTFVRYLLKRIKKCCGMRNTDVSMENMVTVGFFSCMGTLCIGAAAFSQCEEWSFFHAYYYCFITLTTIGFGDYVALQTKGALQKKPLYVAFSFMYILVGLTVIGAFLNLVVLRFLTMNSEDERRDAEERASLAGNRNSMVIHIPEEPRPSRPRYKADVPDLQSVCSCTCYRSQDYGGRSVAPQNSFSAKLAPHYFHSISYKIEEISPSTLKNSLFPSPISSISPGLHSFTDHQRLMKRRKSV
Chain of Potassium channel subfamily K member 3 (O14649 whole entry): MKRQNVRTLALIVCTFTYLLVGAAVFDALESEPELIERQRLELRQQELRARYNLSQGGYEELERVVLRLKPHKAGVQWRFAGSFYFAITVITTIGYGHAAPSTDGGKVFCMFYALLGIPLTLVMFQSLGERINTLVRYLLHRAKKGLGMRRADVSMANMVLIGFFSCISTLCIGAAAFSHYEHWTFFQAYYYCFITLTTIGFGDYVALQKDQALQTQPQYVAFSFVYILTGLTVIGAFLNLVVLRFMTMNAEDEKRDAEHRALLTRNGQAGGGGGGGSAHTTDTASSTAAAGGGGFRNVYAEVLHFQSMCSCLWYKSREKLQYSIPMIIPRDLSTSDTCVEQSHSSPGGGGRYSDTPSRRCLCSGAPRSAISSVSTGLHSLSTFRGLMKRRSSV
Chain of 5-hydroxytryptamine receptor 2A (P35363 whole entry, the tested form may be a part): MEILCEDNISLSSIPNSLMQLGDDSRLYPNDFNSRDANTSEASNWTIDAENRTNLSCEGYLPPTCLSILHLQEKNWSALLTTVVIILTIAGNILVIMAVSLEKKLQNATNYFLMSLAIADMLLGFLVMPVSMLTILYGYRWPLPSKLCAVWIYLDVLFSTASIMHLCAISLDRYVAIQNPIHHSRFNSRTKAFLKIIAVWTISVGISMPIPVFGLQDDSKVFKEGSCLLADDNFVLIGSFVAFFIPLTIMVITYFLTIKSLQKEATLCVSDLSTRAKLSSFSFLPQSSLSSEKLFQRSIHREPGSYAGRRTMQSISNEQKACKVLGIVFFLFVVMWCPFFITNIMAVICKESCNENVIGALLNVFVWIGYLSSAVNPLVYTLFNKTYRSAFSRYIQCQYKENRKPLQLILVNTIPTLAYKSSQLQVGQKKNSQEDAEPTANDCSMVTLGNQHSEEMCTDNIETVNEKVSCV
Chain of Botulinum neurotoxin type F (P30996 1-436 limits assumed): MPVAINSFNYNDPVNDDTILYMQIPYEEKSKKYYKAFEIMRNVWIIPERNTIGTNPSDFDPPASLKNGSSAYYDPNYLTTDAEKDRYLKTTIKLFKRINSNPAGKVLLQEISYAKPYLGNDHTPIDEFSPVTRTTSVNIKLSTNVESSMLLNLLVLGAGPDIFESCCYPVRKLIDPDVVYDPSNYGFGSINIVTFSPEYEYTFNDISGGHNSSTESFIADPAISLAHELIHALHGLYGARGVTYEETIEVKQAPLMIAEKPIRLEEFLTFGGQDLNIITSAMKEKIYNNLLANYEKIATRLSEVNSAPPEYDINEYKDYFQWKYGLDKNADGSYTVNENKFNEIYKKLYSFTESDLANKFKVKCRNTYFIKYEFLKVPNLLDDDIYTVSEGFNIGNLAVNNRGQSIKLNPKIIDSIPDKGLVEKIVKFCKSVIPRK
Chain of Protein disulfide-isomerase (P07237 whole entry): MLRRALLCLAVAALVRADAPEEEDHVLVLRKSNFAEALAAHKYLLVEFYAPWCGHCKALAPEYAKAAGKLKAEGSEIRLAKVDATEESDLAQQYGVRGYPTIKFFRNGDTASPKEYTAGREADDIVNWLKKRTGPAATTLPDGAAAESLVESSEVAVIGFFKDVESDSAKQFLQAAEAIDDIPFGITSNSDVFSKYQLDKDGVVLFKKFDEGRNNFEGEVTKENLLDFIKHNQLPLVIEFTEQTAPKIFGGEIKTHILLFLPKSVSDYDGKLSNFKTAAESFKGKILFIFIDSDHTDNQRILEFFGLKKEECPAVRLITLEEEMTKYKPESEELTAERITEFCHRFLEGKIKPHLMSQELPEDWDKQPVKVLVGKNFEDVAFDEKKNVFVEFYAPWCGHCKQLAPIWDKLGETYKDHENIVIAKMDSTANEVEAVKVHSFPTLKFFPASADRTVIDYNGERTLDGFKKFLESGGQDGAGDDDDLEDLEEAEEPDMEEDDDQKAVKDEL

## Cc1ccccc1-c1ccc(/C=C2/SC(N3CCOCC3)=NC2=O)o1
[1]
  EC50: 6.39 µM (active)
[2]
  EC50: 26.1 µM (inconclusive)
[3]
  EC50: 69.6 µM (active)
[4]
  EC50: 92.5 µM (inactive)

## C=CCOc1ccccc1CN1CCC(Cc2ccccc2)CC1
[5]
  AC50: 35 µM (active)

## COc1ccccc1NC1=C(C(N)=O)C(=N)C(C(=O)Nc2cccc(Cl)c2Cl)S1 (configuration not stated)
[6]
  EC50: 14.5 µM (active)
[7]
  EC50: 33.3 µM (inconclusive)
[8]
  EC50: 22.3 µM (active)
[9]
  EC50: 4.27 µM (active)
[10]
  AC50: 6.08 µM (active)

## Cc1nc2ccc(NC(=O)N3CCCCC3)cc2nc1C
[11]
  EC50: 5.48 µM (active)

## CCc1nc(N2CCCCC2C)c2oc3ccccc3c2n1 (configuration not stated)
[12]
  AC50: 36.2 µM (active)
[13]
  AC50: 11.7 µM (active)
[14]
  AC50: 14.2 µM (active)
[15]
  AC50: 49.6 µM (active)

## COc1ccc(-c2nnn(CC(=O)N(Cc3ccco3)C(C(=O)NCC3CCCO3)c3ccco3)n2)cc1 (configuration not stated)
[16]
  AC50: > 30 µM (inactive)

## C/C(=C/c1oc2ccc(O)cc2c1[N+](=O)[O-])N(C)C
[17]
  IC50: 13.3 µM (active)
[18]
  IC50: 9.41 µM (active)
[19]
  IC50: > 100 µM (inactive)

## COc1ccc(NC(S)=NNC(=O)c2nnn(-c3ccccc3)c2C)cc1
[20]
  EC50: 14.2 µM (active)
[21]
  IC50: > 122 µM (inactive)
[22]
  IC50: > 20 µM (inactive)

## Cc1cc2ccccc2n1CCNC(=O)Cc1ccccc1
[23]
  EC50: 2.9 µM (active)

## COc1ccc(-c2ccc([C@@H]3[C@@H]4CN(Cc5cc(OC)cc(OC)c5)C[C@H]3N4)cc2)cc1
[24]
  AC50: 11.8 µM (active)
[25]
  AC50: 10.1 µM (active)
[26]
  AC50: 21.5 µM (active)
[27]
  AC50: 6.38 µM (active)
[28]
  AC50: 2.24 µM (active)
[29]
  AC50: 23.8 µM (active)
[30]
  AC50: 10.5 µM (active)

## Oc1ccc(-c2[nH]nc(C(F)(F)F)c2-c2ccccc2)c(O)c1
[31]
  AC50: 0.473 µM (active)
[32]
  IC50: 0.547 µM (active)
[33]
  AC50: 0.283 µM (active)
[34]
  AC50: 3.81 µM (active)
[35]
  AC50: 2.63 µM (active)
[36]
  IC50: 0.666 µM (active)
[37]
  AC50: 53.2 µM (active)

## O=C1C(NS(=O)(=O)c2ccccc2)=C(N2CCOCC2)C(=O)c2ccccc21
[38]
  AC50: > 70 µM (inactive)
[39]
  AC50: > 70 µM (inactive)

## CCOC(=O)C1(CCOc2ccccc2)CCN(C(=O)OC(C)(C)C)CC1
[40]
  AC50: > 30 µM (inactive)
[41]
  AC50: 44.4 µM (active)

## Cc1ccc(S(=O)(=O)N(C)C[C@@H]2OCCCC[C@@H](C)Oc3ccc(NS(=O)(=O)c4ccc(Cl)cc4)cc3C(=O)N([C@@H](C)CO)C[C@H]2C)cc1
[42]
  AC50: > 30 µM (inactive)

## COc1ccccc1NC(=O)c1cccc(NC(=O)CC2CCCC2)c1
[43]
  IC50: 2.63 µM (active)
[44]
  IC50: 0.086 µM (active)

## COc1ccccc1NC(=O)CN1C2CCCC1CC(NC(=O)c1cc(OC)c(OC)c(OC)c1)C2 (configuration not stated)
[45]
  IC50: > 79 µM (inactive)
[46]
  IC50: > 79 µM (inactive)

## O=C(NCc1nc2ccccc2[nH]1)C1=C[C@@H](c2ccc3c(c2)OCO3)C[C@@H](OCCCCO)O1
[47]
  IC50: > 83.3 µM (inactive)
